Measurements from ChEMBL document CHEMBL1134980, “Structure-activity relationships for a series of thiobenzamide influenza fusion inhibitors derived from 1,3,3-trimethyl-5-hydroxy-cyclohexylmethylamine” (Bioorg Med Chem Lett, 2002).
≈ marks a conversion by molar mass, not a printed value.

Legend:
MDCK = experiment: The concentration causing a 50% reduction in cell viability in the absence of influenza infection on MDCK cells in cell protection assay.; format: functional; details: Canis lupus familiaris
Influenza A virus = experiment: Anti-influenza activity on A/WSN/33 (H1N1 subtype) strain of influenza virus infected on MDCK cells in cell protection assay.; format: functional, organism-based

Row | Structure (SMILES) | CC50 (MDCK) [µg/mL] | EC50 (Influenza A virus) | IC50 (Influenza A virus)
1 | Cc1ccc(C)c(/C(S)=N/C[C@@]2(C)C[C@H](O)CC(C)(C)C2)c1 | 45 (≈ 141 µM) | 0.023 µg/mL (≈ 0.072 µM) | 0.08 µg/mL (≈ 0.25 µM)
2 | CC1(C)C[C@H](O)C[C@](C)(C/N=C(\S)c2ccccc2O)C1 | 40 (≈ 130 µM) | 4.5 µg/mL (≈ 14.6 µM) | 2.4 µg/mL (≈ 7.81 µM)
3 | CC1(C)C[C@H](O)C[C@](C)(CNC(=O)c2ccccc2O)C1 | 70 (≈ 240 µM) | – | –
4 | CC1(C)C[C@H](O)C[C@](C)(C/N=C(\S)c2cccc(C(F)(F)F)c2)C1 | 5 (≈ 13.9 µM) | Not Active | 23 µg/mL (≈ 64 µM)
5 | Cc1ccc(O)c(C(=O)NC[C@@]2(C)C[C@@H](O)CC(C)(C)C2)c1 | 50 (≈ 164 µM) | 0.03 µg/mL (≈ 0.0982 µM) | 0.039 µg/mL (≈ 0.128 µM)
6 | CC1(C)C[C@@H](O)C[C@](C)(CNC(=O)c2ccccc2O)C1 | 90 (≈ 309 µM) | – | –
7 | Cc1cc(C)cc(/C(S)=N/C[C@@]2(C)C[C@@H](O)CC(C)(C)C2)c1 | 40 (≈ 125 µM) | Not Active | 0.5 µg/mL (≈ 1.56 µM)
8 | Cc1ccc(/C(S)=N/C[C@@]2(C)C[C@@H](O)CC(C)(C)C2)cc1 | 25 (≈ 81.8 µM) | Not Active | Not Active
9 | CC1(C)C[C@@H](O)C[C@](C)(CNC(=O)Nc2ccccc2Cl)C1 | – | – | 0.1 µg/mL (≈ 0.308 µM)
10 | CC1(C)C[C@@H](O)C[C@](C)(C/N=C(\S)c2ccccc2O)C1 | 40 (≈ 130 µM) | 2 µg/mL (≈ 6.5 µM) | 2.4 µg/mL (≈ 7.81 µM)
11 | Cc1ccc(/C(S)=N/C[C@@]2(C)C[C@H](O)CC(C)(C)C2)c(C)c1 | 35 (≈ 110 µM) | 0.15 µg/mL (≈ 0.469 µM) | 0.45 µg/mL (≈ 1.41 µM)
12 | CC1(C)C[C@@H](O)C[C@](C)(C/N=C(\S)c2cc(Cl)ccc2O)C1 | 4 (≈ 11.7 µM) | 1.8 µg/mL (≈ 5.26 µM) | 1 µg/mL (≈ 2.92 µM)
13 | Cc1cccc(/C(S)=N/C[C@@]2(C)C[C@@H](O)CC(C)(C)C2)c1 | 20 (≈ 65.5 µM) | Not Active | 7.5 µg/mL (≈ 24.6 µM)
14 | Cc1cccc(/C(S)=N/C[C@@]2(C)C[C@H](O)CC(C)(C)C2)c1 | 35 (≈ 115 µM) | 0.015 µg/mL (≈ 0.0491 µM) | 0.03 µg/mL (≈ 0.0982 µM)
15 | Cc1ccc(O)c(/C(S)=N/C[C@@]2(C)C[C@H](O)CC(C)(C)C2)c1 | 20 (≈ 62.2 µM) | 0.5 µg/mL (≈ 1.56 µM) | 0.33 µg/mL (≈ 1.03 µM)
16 | CC1(C)C[C@@H](O)C[C@](C)(C/N=C(\S)c2cccc(C(F)(F)F)c2)C1 | 15 (≈ 41.7 µM) | 0.09 µg/mL (≈ 0.25 µM) | 0.3 µg/mL (≈ 0.835 µM)
17 | CC1(C)C[C@H](O)C[C@](C)(C/N=C(\S)c2ccccc2)C1 | 50 (≈ 172 µM) | Not Active | 3.5 µg/mL (≈ 12 µM)
18 | CC1(C)C[C@@H](O)C[C@](C)(C/N=C(\S)c2cccc([N+](=O)[O-])c2)C1 | 15 (≈ 44.6 µM) | Not Active | 1.8 µg/mL (≈ 5.35 µM)
19 | Cc1ccccc1/C(S)=N/C[C@@]1(C)C[C@@H](O)CC(C)(C)C1 | 2 (≈ 6.55 µM) | Not Active | 2.4 µg/mL (≈ 7.86 µM)
20 | Cc1ccc(/C(S)=N/C[C@@]2(C)C[C@@H](O)CC(C)(C)C2)c(C)c1 | 30 (≈ 93.9 µM) | Not Active | Not Active

Row | Structure (SMILES) | CC50 (MDCK) [µg/mL] | EC50 (Influenza A virus) | IC50 (Influenza A virus)
21 | CC1(C)C[C@H](O)C[C@](C)(CNC(=O)c2cc(Cl)ccc2O)C1 | 80 (≈ 246 µM) | 0.06 µg/mL (≈ 0.184 µM) | 0.025 µg/mL (≈ 0.0767 µM)
22 | CC1(C)C[C@H](O)C[C@](C)(C/N=C(\S)c2cccc(F)c2)C1 | 20 (≈ 64.6 µM) | Not Active | 5 µg/mL (≈ 16.2 µM)
23 | COc1ccccc1/C(S)=N/C[C@@]1(C)C[C@H](O)CC(C)(C)C1 | 43 (≈ 134 µM) | 1 µg/mL (≈ 3.11 µM) | 0.5 µg/mL (≈ 1.56 µM)
24 | CC1(C)C[C@@H](O)C[C@](C)(C/N=C(\S)c2cccc(Cl)c2)C1 | 20 (≈ 61.4 µM) | 0.02 µg/mL (≈ 0.0614 µM) | 0.047 µg/mL (≈ 0.144 µM)
25 | CC1(C)C[C@@H](O)C[C@](C)(C/N=C(\S)c2cccc(C#N)c2)C1 | 22 (≈ 69.5 µM) | 2.5 µg/mL (≈ 7.9 µM) | Not Active
26 | COC(=O)c1cccc(/C(S)=N/C[C@@]2(C)C[C@H](O)CC(C)(C)C2)c1 | 50 (≈ 143 µM) | Not Active | Not Active
27 | Cc1ccc(/C(S)=N/C[C@@]2(C)C[C@H](O)CC(C)(C)C2)cc1 | 40 (≈ 131 µM) | Not Active | 7 µg/mL (≈ 22.9 µM)
28 | Cc1ccc(C)c(/C(S)=N/C[C@@]2(C)C[C@@H](O)CC(C)(C)C2)c1 | 30 (≈ 93.9 µM) | Not Active | 1.5 µg/mL (≈ 4.69 µM)
29 | CC1(C)C[C@@H](O)C[C@](C)(CNC(=O)c2cc(Cl)ccc2O)C1 | > 100 | 0.2 µg/mL (≈ 0.614 µM) | 0.15 µg/mL (≈ 0.46 µM)
30 | CC1(C)C[C@@H](O)C[C@](C)(C/N=C(\S)c2ccccc2)C1 | 10 (≈ 34.3 µM) | 0.05 µg/mL (≈ 0.172 µM) | 0.15 µg/mL (≈ 0.515 µM)
31 | CC1(C)C[C@H](O)C[C@](C)(C/N=C(\S)c2cc(Cl)ccc2O)C1 | 5.5 (≈ 16.1 µM) | 0.9 µg/mL (≈ 2.63 µM) | 2.8 µg/mL (≈ 8.19 µM)
32 | Cc1cc(C)cc(/C(S)=N/C[C@@]2(C)C[C@H](O)CC(C)(C)C2)c1 | 18 (≈ 56.3 µM) | 0.03 µg/mL (≈ 0.0939 µM) | 0.52 µg/mL (≈ 1.63 µM)
33 | CC1(C)C[C@H](O)C[C@](C)(C/N=C(\S)c2cccc(Cl)c2)C1 | 8.5 (≈ 26.1 µM) | Not Active | 2.5 µg/mL (≈ 7.67 µM)
34 | CC1(C)C[C@@H](O)C[C@](C)(C/N=C(\S)c2cccc(F)c2)C1 | 70 (≈ 226 µM) | 0.038 µg/mL (≈ 0.123 µM) | 0.19 µg/mL (≈ 0.614 µM)
35 | Cc1ccc(O)c(/C(S)=N/C[C@@]2(C)C[C@@H](O)CC(C)(C)C2)c1 | 15 (≈ 46.7 µM) | 0.4 µg/mL (≈ 1.24 µM) | 0.16 µg/mL (≈ 0.498 µM)
36 | COc1ccccc1/C(S)=N/C[C@@]1(C)C[C@@H](O)CC(C)(C)C1 | 45 (≈ 140 µM) | Not Active | Not Active
37 | Cc1ccccc1/C(S)=N/C[C@@]1(C)C[C@H](O)CC(C)(C)C1 | 70 (≈ 229 µM) | 0.065 µg/mL (≈ 0.213 µM) | 0.14 µg/mL (≈ 0.458 µM)
38 | Cc1ccc(O)c(C(=O)NC[C@@]2(C)C[C@H](O)CC(C)(C)C2)c1 | 70 (≈ 229 µM) | 0.15 µg/mL (≈ 0.491 µM) | 0.015 µg/mL (≈ 0.0491 µM)
39 | CC1(C)C[C@H](O)C[C@](C)(CNC(=O)Nc2ccccc2Cl)C1 (relative stereo) | – | – | 0.1 µg/mL (≈ 0.308 µM)
